Experiments:
[1] = test system: DU145, PC3, and LNCaP cell lines; test: MTS assay, values averaged or stated over the CaP cell lines; format: cell-based; settings: apoptotic mechanism
Method: (§1) DU145, LNCaP, PC3, and MCF-7 cells were obtained from the American Type Culture Collection (Manassas, Va.). DU145, PC3, and MCF-7 cells were maintained in Dulbecco's modified Eagle's medium/F-12 supplemented with 5% heat inactivated Fetal Calf Serum and Penicillin/Streptomycin (Invitrogen Life Technologies, Carlsbad, Calif.). LNCaP cells were maintained in RPMI 1640 medium supplemented in the same fashion. Cells were cultured in 75 cm^2 flasks (Falcon, BD Biosciences, Bedford, Mass.) at 37° C. and 5% CO2. For the MTS assay (Example 3), five thousand cells were plated in each well of a 24 well plate (Falcon), were allowed to attach for a 48-hour period in the media described, and changed to a defined medium, (DMEM/F-12 or RPMI1640) supplemented with insulin (BD Biosciences). A 1000× solution of the compound of interest solubilized in DMSO (Sigma, Saint Louis, Mo.) was diluted in the defined media just prior to starting each experiment, and media was refreshed every 48 to 72 hours throughout the experiments.
(§2) . Upon completing five days of treatment, the medium in each well was exchanged for 400 μL of an MTS solution (3-(4,5-dimethylthiazol-2-yl)-5-(3-carboxymethoxyphenyl)-2-(4-sulfophenyl)-2H-tetrazolium, inner salt; O'Toole SA, 2003, Cancer Detect Prev., 2003;27(1):47-54) spiked into media as per the manufacture's instructions (Promega, Madison, Wis.) and incubated for 2 hours at 37° C. before reading the absorbance on the μQuant UV/VIS plate reader, in conjunction with KCjunior Software (Bio-Tek Instruments, Winooski, Vt.) set at 490 nm. All experiments were carried out in quadruplicate, control wells were treated with the carrier DMSO. E2, which is estradiol-17β (Steraloids®, Newport, R.I.) and resveratrol (Sigma) were used as controls. […]

[2] = test system: LNCaP; test: MTS cell viability assay in LNCaP; format: cell-based
Method: DU145, LNCaP, PC3, and MCF-7 cells were obtained from the American Type Culture Collection (Manassas, Va.). DU145, PC3, and MCF-7 cells were maintained in Dulbecco's modified Eagle's medium/F-12 supplemented with 5% heat inactivated Fetal Calf Serum and Penicillin/Streptomycin (Invitrogen Life Technologies, Carlsbad, Calif.). LNCaP cells were maintained in RPMI 1640 medium supplemented in the same fashion. Cells were cultured in 75 cm^2 flasks (Falcon, BD Biosciences, Bedford, Mass.) at 37° C. and 5% CO2. […]
(§3) Cell viability assays were carried out with five logs of concentration between 0.1 nM and […] for APVE2, including controls in three prostate cancer cell lines (DU145, LNCaP, and PC3, and in a breast cancer cell line (MCF-7). Upon completing five days of treatment, the medium in each well was exchanged for 400 μL of an MTS solution (3-(4,5-dimethylthiazol-2-yl)-5-(3-carboxymethoxyphenyl)-2-(4-sulfophenyl)-2H-tetrazolium, inner salt; O'Toole SA, 2003, Cancer Detect Prev., 2003;27(1):47-54) spiked into media as per the manufacture's instructions (Promega, Madison, Wis.) and incubated for 2 hours at 37° C. before reading the absorbance on the μQuant UV/VIS plate reader, in conjunction with KCjunior Software (Bio-Tek Instruments, Winooski, Vt.) set at 490 nm. […] EC50 values were calculated with GraphPad Prism software (GraphPad Software Inc., San Diego, Calif.).

[3] = test system: NCR nude mice; settings: 5 to 40 mg/kg/day bolus IM injection, 40-day period
Method: Doses included 5 to 40 mg/kg/day bolus IM injection. Toxicity effects were gauged based on changes in animal weight and gross analysis of specific organs including liver, lung, prostate, brain, spleen, heart, and kidney, collected, and fixed in paraffin sections.

[4] = test system: PC3; test: MTS cell viability assay in PC3; format: cell-based
Method: as §1
as §3, with “nm. All experiments were carried out in quadruplicate, control wells were treated with the carrier DMSO. E2, which is estradiol-17β (Steraloids®, Newport, R.I.) and resveratrol (Sigma) were used as controls.” for “nm.”

[5] = test system: DU145 cells; test: Flow cytometry cell cycle analysis; format: cell-based; settings: 16 nM
Method: The cells were trypsinized for five minutes, scraped, washed in serum containing media, centrifuged at 300 rpm for 10 minutes, and fixed in ice-cold 70% ethanol for 24 hours at −20° C. The cells were again pelleted and resuspended in buffer containing nine parts 0.05M Na2HPO4 and one part 25 mM citric acid with 0.1% Triton X-100 (pH 7.8) for 2 hours. Cells were pelleted, resuspended in a buffer ([…], 0.1 N NaCl, 2 mM MgCl2, and 0.1% Triton X-100) containing 20 μg PI and 50 μg/ml RNAse (pH 6.8), and incubated in the dark at room temperature for 30 minutes. Cell cycle distribution and DNA content analysis were assayed according to standard methods with a FACS sorter, FACScan™ flow cytometer (Becton Dickinson, Mountain View, Calif.), and analyzed by the Cell Cycle Multi-Cycle system (Phoenix Flow System, San Diego, Calif.). Approximately 15,000 single events were collected, and cell-cycle distribution was determined using Modfit LT version 2 software (Verity House, Inc., Topsham, Me.). All analyses were carried out in quadruplicate.

[6] = test system: MCF-7; test: Cytotoxicity testing (Example 7), MTS, MCF-7; format: cell-based; settings: Table 3, five days, 1 mM of each compound, defined media
Method: (§4) Cytotoxicity Studies were done in DU-145 and MCF-7 Cells. […] We set out to test the efficacy of these compounds based on known affinities for ER-α previously reported. Cells were treated for five days with 1 mM of each compound in a defined media. Cell number was estimated by the MTS method. Similar studies were carried out in the MCF-7 cell line known to express both ER-α and -β, and display proliferative properties in the presence of classic estrogens.

[7] = test system: DU145; test: MTS cell viability assay in DU145; format: cell-based
Method: as §1, §2

[8] = test system: DU145 cells; test: Annexin-V-FITC/PI apoptosis assay; format: cell-based; settings: 16 nM, 4th and 5th days
Method: Apoptosis was assessed with the annexin-V-FITC apoptosis detection kit (Oncogene Research Products, Boston, Mass.) as per the manufacturer's instructions with E2 and camptothecin (Calbiochem, San Diego, Calif.) as negative and positive controls respectively. Briefly, cells were lifted at the appropriate time points as described above and pelleted. Cells were then resuspended in ice cold binding buffer, and doubly stained with Annexin-V-fluorescein isothiocyanate and propidium iodide (PI) and analyzed within two hours on the FACScan™ flow cytometer (Becton Dickinson) and the Cell Cycle Multi-Cycle system (Phoenix Flow System).

[9] = test system: DU-145; test: Cytotoxicity testing (Example 7), MTS, DU-145; format: cell-based; settings: Table 3; five days, 1 mM of each compound, defined media, MTS
Method: as §4

## C[C@]12CC[C@@H]3c4ccc(O)cc4CC[C@H]3[C@@H]1CC[C@@]2(O)/C=C\c1ccc(N)cc1 [APVE2, 17α-20Z-21-[(4-amino)phenyl]-19-norpregna-1,3,5(10),20-tetraene-3,17β-diol]
[1]
  level of cell death: > 90%
[2]; 5 days of treatment at 1 μM
  decrease in cell number: 69±2.3%
[2]; Homo sapiens, 120 h, five day treatment, read-out: EC50 (cell death, MTS)
  EC50: 1.4 nM
[3]
  general toxicity (animal weight, gross analysis of organs): No apparent detrimental effects
[4]; Homo sapiens, PC-3, 120 h, PC3, five day treatment, read-out: EC50 (cell death, MTS)
  EC50: 2.7 nM
[4]; PC3, 1 nM
  increase in cell proliferation over non-treated controls: 20%
[4]; PC3, 5 days of treatment at 1 μM
  decrease in cell number: 81±0.8%
[5]
  increase in G2/M accumulation: over 4 fold
[5]; day 2-3
  G1/G0 phase, compared to non-treated controls: 135%
[5]; day 3
  G2/M, compared to non-treated controls: no change
  S phase, decrease to, compared to non-treated controls: 32%
[5]; day 4
  G1/G0, decrease to, over non-treated controls: 48%
  S phase, over non-treated controls: 73%
[5]; day 4-5
  G2/M arrest, over non-treated controls: 420%
[5]; four to five days
  loss of G1: over 48%
[5]; second and third day
  loss in S phase: up to 68%
[6]
  MCF-7 % Cell#: 25%
[7]; DU145, 5 days of treatment at 1 μM
  decrease in cell number: 92±0.9%
[7]; Homo sapiens, DU-145, 120 h, read-out: EC50 (cell death, MTS)
  EC50: 16 nM
[8]
  cells staining heavily with both dyes (late stage apoptosis): approximately 76%
[9]
  DU145 % Cell#: 10%

From patent US20060025394A1, “Estradiol-related compounds and methods of use as anti-tumor agents” (priority 2003, published 2006)
